The source of these data is patent publication US5591773A, “Inhibition of cataract formation, diseases resulting from oxidative stress, and HIV replication by caffeic acid esters” (priority 1994, dated 1997).

The test system of data set [1] is NIH 10T1/2, Ltk^- and rat 6 cells transformed with T24 oncogene. The note with it: cited from earlier work.
Data set [2] deals with ornithine decarboxylase (ODC). The data set can be described thus: TPA-induced ornithine decarboxylase (ODC) in SENCAR mice. Type of data set: in vivo. The note with it: CAPE 10 μmol, TPA 4 nmol. Here is the method:
(§1) A) Treatment of Animals and Assays. Female SENCAR (6-8 weeks old) and CD-1 mice (about 7 weeks old) were purchased from Biological Testing, National Cancer Institute (Frederick, Md.) and from Charles River Laboratory (Stone Ridge, N.Y.), respectively. The mice were acclimated for at least 1 week before use. They were subjected to a 12-h light/12-h dark cycle, housed at 20°±2° C. in a room with 10 cycles of air exchanges/h, given food and water ad libitum, and observed for any indication of ill health. Before topical application of any test agents, their backs were shaved and only those without hair growth after 48 h were used.

In the next data set the test system is normal tissue. The note with it: cited from earlier work.
The subject of data set [3] is oxidative burst of human PMNs. Briefly: H2O2 formation by TPA-stimulated human PMNs (phenol red/HRPO). Type of data set: cell-based. Here is the method: FIG. 4. CAPE-mediated inhibition of H2 O2 formation by TPA-stimulated human PMNs. Cells were incubated with CAPE (0.05-5 nmol/ml) and TPA (25 pmol/2.5×10^5 PMNs/ml) at 37° C. for 30 min, and H2 O2 was determined by the phenol red/HRPO assay, as described in the "Experimental Details" Section, infra. Note the semilog scale. The results are presented as mean values ±SE.
A) Human PMNS Blood was obtained from healthy volunteers and collected into EDTA-containing tubes. Red cells were removed by dextran sedimentation and lysis with hypotonic ammonium chloride, as described previously (5). Cells were washed in glucose-containing basic salt solution (137 mM NaCl, 5 mM KCl, 8.5 mM Na2 HPO4 -NaH2 PO4, 0.8 mM MgSO4, 5 mM glucose, pH 7.4) and suspended at a ratio of 10 ml of the initial blood volume/ml basic salt solution. Whole WBC population was used as a source of PMNs, with PMN numbers used per assay being adjusted according to the results of Wright's staining of the peripheral blood.
PMNs (2.5×10^5 /ml) were incubated with CAPE (0.05-5.0 nmol/ml) and/or TPA (25 pmol/ml) at 37° C. for 30 min in the presence of phenol red (100 μg) and HRPO (50 μg) (54). After the reaction was stopped with catalase (50 μg/ml), the pH was adjusted to 12.5 with NaOH, the mixture was centrifuged, and the absorbance of the supernatant was determined at 598 nm. […]

The subject of a further data set is transformed cells. The note with it: cited from earlier work.
For another data set, the system named is HIV integrase. The note with it: cited from earlier work.
The next data set deals with HRPO. Briefly: Degradation of H2O2 / inhibition of HRPO. It is filed as biochemical. The note with it: unpublished results of Bhimani and Frenkel.
Data set [4] has as its system Fischer cloned rat embryo fibroblasts. The note with it: cited from earlier work.
The subject of data set [5] is ornithine decarboxylase (ODC). The data set can be described thus: TPA-induced ornithine decarboxylase (ODC) in CD-1 mice. The note with it: CAPE 1 μmol, TPA 5 nmol, (76). Type of data set: in vivo. As to the method:
as §1

Data set [6] has as its system TPA-induced cataracts in eyes of rabbits. The data set can be described thus: TPA-induced cataracts in rabbits in vivo. Set-up: species or system white New Zealand rabbits. The note with it: daily TPA-containing drops, 6 week period.
A further data set has as its system bovine lens (opacity). The note with it: 1 μM TPA; cited from earlier work.
The next data set relates to mouse skin. The note with it: cited from earlier work.

Each structure is given as a SMILES string. Entries after “also recorded” stand apart in the source; their conditions may differ.

With `O=C(/C=C/c1ccc(O)c(O)c1)OCCc1ccccc1` [CAPE, Caffeic acid phenethyl ester], the “growth inhibition (in words)” value in data set [1] is on record as “inhibited”. Besides, the entries for the “inhibition of TPA-induced ODC” value in data set [2] and in [5] were 62% and 55%, respectively. The “toxicity to normal tissue (in words)” value in the data set on normal tissue is reported as “not toxic to normal tissue”. Further, the IC50 in [3] (0.5 h, human PMNs 2.5×10^5/ml, TPA 25 pmol/ml, 37° C., 30 min, read-out: 50% inhibition of oxidative burst of PMNs (H2O2 production)) was 500 nM. The “inhibition of oxidative burst (in words)” value in data set [3] (CAPE 0.05-5.0 nmol/ml) is “inhibited the oxidative burst of PMNs (as measured by H2 O2 production) in a dose-dependent manner”. In addition, the “selective toxicity (in words)” value with transformed cells was “selectively toxic to transformed cells but not to normal cells”. Moreover, in the data set with HIV integrase, the “HIV integrase inhibition (in words)” value is given as “inhibits HIV integrase”. Besides, the “degradation of H2O2 or inhibition of HRPO (in words)” value in the data set on HRPO was “does not degrade H2 O2 or inhibit HRPO”. For the same compound, in data set [4], the “inhibition of adenovirus type 5 E1A-mediated transformation; cytotoxicity (in words)” value is “inhibit the transformation mediated by adenovirus type 5 E1A; also recorded: more cytotoxic to transformed Fischer cloned rat embryo fibroblasts than to wild type cells”.

Turning to `CCCCCCCCCCCCCC(=O)O[C@@H]1[C@@H](C)[C@@]2(O)[C@@H](C=C(CO)C[C@]3(O)C(=O)C(C)=C[C@@H]23)[C@@H]2C(C)(C)[C@]12OC(C)=O` [TPA, 12-O-tetradecanoylphorbol-13-acetate], the “alteration in lens transparency (in words)” value in data set [6] was “failed to induce any visible alteration in the transparency of the lenses”. For the same compound, the “lens opacity (in words)” value in the data set with bovine lens (opacity) is reported as “even more pronounced; also recorded: causes its opacity”. In addition, the “H2O2 production and oxidation of DNA bases in vivo (in words)” value in the data set with mouse skin is “induce H2 O2 production in mouse skin as well as cause oxidation of DNA bases in vivo”.
